Measured values from patent US20060241123A1, “Substituted piperidine and piperazine derivatives as melanocortin-4 receptor modulators” (priority 2003, published 2006).
Where two headings read alike, the source gives them in different places. One block for each molecule: values may come before it.

Columns and labels:
hMC4-R [1] = target: T1, hMC4-R (Homo sapiens, UniProt P32245); assay: Membrane binding assay, fluorescence polarization, fluorescence labeled NDP-alpha-MSH; details: HEK293 cell membrane preparations
T1 construct: expressed in transfected cells; host or cells: HEK293 cells
Description: A membrane binding assay is used to identify competitive inhibitors of fluorescence labeled NDP-alpha-MSH binding to HEK293 cell membrane preparations expressing human melanocortin receptors.
The test compound or unlabeled NDP-alpha-MSH is dispensed at varying concentrations to a 384 well microtiter plate. Fluorescence labeled NDP-alpha-MSH is dispensed at a single concentration, followed by addition of membrane preparations. The plate is incubated for 5 h at room temperature.
The degree of fluorescence polarization is determined with a fluorescence polarization microplate reader.

hMC4-R [2] = target: T1, hMC4-R; assay: Functional cellular cAMP assay, fluorescence polarization, HEK293 cells; assay type: cell-based; details: for % activation functional assay: compared to stimulation with NDP-alpha-MSH; for EC50: cAMP production
Description: A functional cellular assay, based on competition between unlabeled CAMP and a fixed quantity of fluorescence labeled cAMP for a limited number of binding sites on a cAMP specific antibody, is used to discriminate melanocortin receptor agonists from antagonists by fluorescence polarization.
HEK293 cells expressing one of the human melanocortin receptors are transferred to 384 well microtiter plates, an appropriate amount of cAMP antibody is added, followed by the addition of different concentrations of the test compound to effect cAMP production. Cells are lysed and a fluorescence labeled cAMP conjugate is dispensed. The plate is read on a fluorescence polarization microplate reader and the amount of cAMP produced as a response to a test compound is compared to the production of cAMP resulting from stimulation with NDP-alpha-MSH. […]

male Wistar rats [3] = assay: Spontaneous feeding paradigm, food intake in rats; assay type: in vivo, rat; details: for increase in cumulative food intake: compared to vehicle
Description: Food intake in rats is measured after i.p. or p.o. administration of the test compound (see e.g. Chen, A. S. et al. Transgenic Res 2000 April; 9(2):145-54).
Selected Examples of the present invention were active in the rat model at 3, 10 or 30 mg/kg after i.p. and p.o. administration of the test compound, respectively, using male Wistar rats (n=4−6).

melanocortin-4 receptor [4] = target: T2, melanocortin-4 receptor (Homo sapiens, UniProt P32245); details: cited from earlier work; for % stimulation: Bioorg. Med. Chem. Lett. 2003, 13, 3793-3796
rat = details: i.v. or p.o.; WO0074679; cited from earlier work
[5] = J. Med. Chem. 2002, 45, 4589-4593; cited from earlier work
male Wistar rats [6] = assay: Lipopolysaccharide-induced cachexia in rats (acute model); assay type: in vivo, rat
Description: Prevention or amelioration of cachexia induced by either lipopolysaccharide (LPS) administration or by tumor growth is determined upon i.p. or p.o. administration of test compounds to rats (see e.g. Marks, D. L.; Ling, N and Cone, R. D. Cancer Res 2001 Feb. 15; 61 (4): 1432-8).
1-2 Hours prior to the onset of the dark-phase, individually housed, male Wistar rats (200-300 g) receive an ip or po application of test-compound or vehicle (2 ml/kg, 1-30 mg/kg) which is followed or preceded by an ip injection of either lipopolysaccharide (LPS) or saline (2 ml/kg, 100 μg/kg). Food intake, water intake and body weight are measured at 1-24 hour intervals and differences between experimental groups are evaluated.

melanocortin-4 receptor [7] = target: T2, melanocortin-4 receptor; details: cited from earlier work
[8] = read-out: EC50 activation of melanocortin-4 receptor, our assay system
[9] = 3 mg/kg p.o., 4 hours following administration
[10] = 3 mg/kg p.o., 6 hours following administration
[11] = 3 mg/kg p.o., 7 hours following administration

T2 sequence (P32245 whole entry): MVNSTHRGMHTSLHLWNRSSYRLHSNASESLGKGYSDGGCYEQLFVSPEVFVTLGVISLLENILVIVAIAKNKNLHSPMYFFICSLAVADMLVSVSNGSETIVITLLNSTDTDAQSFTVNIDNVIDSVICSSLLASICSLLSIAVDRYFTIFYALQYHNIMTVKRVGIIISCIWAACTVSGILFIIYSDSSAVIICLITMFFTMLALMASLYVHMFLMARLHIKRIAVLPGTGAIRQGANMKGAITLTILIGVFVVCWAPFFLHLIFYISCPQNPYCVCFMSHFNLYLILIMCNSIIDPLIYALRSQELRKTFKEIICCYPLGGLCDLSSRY
T1 sequence (P32245 whole entry): as above

IC50 (hMC4-R [1]): 80 nM | activation of the melanocortin-4 receptor in the functional assay (hMC4-R [2]): does not activate | % activation functional assay (hMC4-R [2]): no activation
Structure (SMILES): CS(=O)(=O)N1CC2(CCN(C(=O)[C@@H](Cc3ccc(Cl)cc3)NC(=O)c3cc(=O)c4ccccc4o3)CC2)c2ccccc21 [Example 1]

Structure (SMILES): CS(=O)(=O)N1CC2(CCN(C(=O)C[C@@H](Cc3ccc(Cl)cc3)NC(=O)[C@H]3Cc4ccccc4CN3)CC2)c2ccccc21.Cl [Example 212]
increase in cumulative food intake (male Wistar rats [3]; 10 mg/kg i.p., 2 hours following administration): 708% | increase in cumulative food intake (male Wistar rats [3]; 10 mg/kg i.p., 4 hours following administration): 725% | increase in cumulative food intake (male Wistar rats [3]; 10 mg/kg i.p., 6 hours following administration): 224% | increase in cumulative food intake (male Wistar rats [3]; 10 mg/kg i.p., 8 hours following administration): 167%

% activation functional assay (hMC4-R [2]): 102%
Structure (SMILES): O=C(NC(Cc1ccc(Cl)cc1)C(=O)N1CCC(Cn2cncn2)(C2CCCCC2)CC1)C1Cc2ccccc2CN1 (stereo not drawn) [WO0074679, example 2]
melanocortin-4 receptor activation (melanocortin-4 receptor [4]; at 10 μM, J. Med. Chem. 2002, 45, 4589-4593): activate the melanocortin-4 receptor | in vivo activity in reflexogenic erections model (rat): in vivo agonist | food intake [5]: significantly reduced

Structure (SMILES): O=C(N[C@H](Cc1ccc(Cl)cc1)C(=O)N1CCN(c2ccccc2C(=O)N2CCCCC2)CC1)c1cc(=O)c2ccccc2o1 [Example 113]
increase in cumulative food intake (male Wistar rats [3]; 30 mg/kg p.o., 2 hours following administration): 192% | increase in cumulative food intake (male Wistar rats [3]; 30 mg/kg p.o., 4 hours following administration): 159% | increase in cumulative food intake (male Wistar rats [3]; 30 mg/kg p.o., 6 hours following administration): 191% | increase in cumulative food intake (male Wistar rats [3]; 30 mg/kg p.o., 7 hours following administration): 200%

EC50 (hMC4-R [2]; [8]): 3700 nM | % activation functional assay (hMC4-R [2]): 96%
Structure (SMILES): CS(=O)(=O)Nc1ccccc1N1CCN(C(=O)[C@@H](Cc2ccc(Cl)cc2)NC(=O)[C@H]2Cc3ccccc3CN2)CC1 [WO03009850, example 1, reference compound]
% stimulation (melanocortin-4 receptor [4]): 100%

IC50 (hMC4-R [1]): 6.8 nM | activation of the melanocortin-4 receptor in the functional assay (hMC4-R [2]): no activation | % activation functional assay (hMC4-R [2]): no activation
Structure (SMILES): CC(C)(C)NC(=O)C1(C2CCCCC2)CCN(C(=O)[C@@H](Cc2ccc(Cl)cc2)NC(=O)c2cc(=O)c3ccccc3o2)CC1 [Example 66]
food intake in spontaneous feeding paradigm (male Wistar rats [3]; 3 mg/kg p.o.): significant increase in food intake | increase in cumulative food intake (male Wistar rats [3]; 3 mg/kg p.o., 2 hours following administration): 410% | increase in cumulative food intake (male Wistar rats [3]; [9]): 500% | increase in cumulative food intake (male Wistar rats [3]; [10]): 186% | increase in cumulative food intake (male Wistar rats [3]; [11]): 272% | cumulative food intake in LPS-induced cachexia (male Wistar rats [6]; 10 mg/kg p.o.): significant increase in cumulative food intake | increase in cumulative food intake (male Wistar rats [6]; 10 mg/kg p.o. in combination with LPS, 4 hours following administration, compared to LPS and vehicle): 148%

Structure (SMILES): CS(=O)(=O)NCc1ccccc1N1CCN(C(=O)C(Cc2ccc(Cl)cc2)NC(=O)C2Cc3ccccc3CN2)CC1 (stereo not drawn) [WO02059108, example 56]
Ki (melanocortin-4 receptor [7]; J. Med. Chem. 2004, 47, 744-755): 210 nM | EC50 (melanocortin-4 receptor [4]; J. Med. Chem. 2004, 47, 744-755, read-out: EC50 activation of melanocortin-4 receptor): 48 nM

IC50 (hMC4-R [1]): 790 nM | activation of the melanocortin-4 receptor in the functional assay (hMC4-R [2]): does not activate | % activation functional assay (hMC4-R [2]): no activation
Structure (SMILES): CS(=O)(=O)NCc1ccccc1N1CCN(C(=O)[C@@H](Cc2ccc(Cl)cc2)NC(=O)c2cc(=O)c3ccccc3o2)CC1 [Example 110]

IC50 (hMC4-R [1]): 54 nM | EC50 (hMC4-R [2]; [8]): 1100 nM | % activation functional assay (hMC4-R [2]): 110%
Structure (SMILES): CS(=O)(=O)N1CC2(CCN(C(=O)[C@@H](Cc3ccc(Cl)cc3)NC(=O)[C@H]3Cc4ccccc4CN3)CC2)c2ccccc21 [WO9964002, example 13, reference compound]
Ki (melanocortin-4 receptor [7]; Current Topics Med. Chem. 2003, 3, 855-883): 10 nM | % stimulation (melanocortin-4 receptor [4]): 100%

IC50 (hMC4-R [1]): 4.4 nM | EC50 (hMC4-R [2]; read-out: hMC4-R functional assay EC50/nM): 700 nM | % activation functional assay (hMC4-R [2]): 40%
Structure (SMILES): O=C(N[C@H](Cc1ccc(Cl)cc1)C(=O)N1CCC(Cn2cncn2)(C2CCCCC2)CC1)c1cc(=O)c2ccccc2o1 [Example 15]
food intake in spontaneous feeding paradigm (male Wistar rats [3]; 3 mg/kg p.o.): significantly increase in food intake | increase in cumulative food intake (male Wistar rats [3]; [9]): 290% | increase in cumulative food intake (male Wistar rats [3]; [10]): 186% | increase in cumulative food intake (male Wistar rats [3]; [11]): 355%

IC50 (hMC4-R [1]): 300 nM | activation of the melanocortin-4 receptor in the functional assay (hMC4-R [2]): does not activate | % activation functional assay (hMC4-R [2]): no activation
Structure (SMILES): CS(=O)(=O)Nc1ccccc1N1CCN(C(=O)[C@@H](Cc2ccc(Cl)cc2)NC(=O)c2cc(=O)c3ccccc3o2)CC1 [Example 8]
